Measured values: the supplement of paper PMC10307832

Legend:
Test in all cases: relative viability (nuclei count vs DMSO), 5 days (fraction); higher = more cells survive
VE-821 + Tozasertib = compound: CS(=O)(=O)c1ccc(-c2cnc(N)c(C(=O)Nc3ccccc3)n2)cc1 [VE-821] + Cc1cc(Nc2cc(N3CCN(C)CC3)nc(Sc3ccc(NC(=O)C4CC4)cc3)n2)n[nH]1 [Tozasertib] (partner 0.1 µM)
How it was run: (§1)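 Relative viability equals treated-well nuclei counts divided by vehicle-well nuclei counts. Counts came from 4× images of lung cancer cell lines grown in 1536-well plates for 5 days after pin-tool dosing on the day after seeding. Dosing used one drug alone or a fixed anchor-drug dose plus five library-drug doses (not always all listed) in √10 steps, and values are medians of duplicate plates.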

Ruxolitinib + Foretinib = compound: N#CC[C@H](C1CCCC1)n1cc(-c2ncnc3[nH]ccc23)cn1 [Ruxolitinib] + COc1cc2c(Oc3ccc(NC(=O)C4(C(=O)Nc5ccc(F)cc5)CC4)cc3F)ccnc2cc1OCCCN1CCOCC1 [Foretinib] (partner 0.25 µM)
How it was run: as §1

VE-821 + Foretinib = compound: CS(=O)(=O)c1ccc(-c2cnc(N)c(C(=O)Nc3ccccc3)n2)cc1 [VE-821] + COc1cc2c(Oc3ccc(NC(=O)C4(C(=O)Nc5ccc(F)cc5)CC4)cc3F)ccnc2cc1OCCCN1CCOCC1 [Foretinib] (partner 0.25 µM)
How it was run: as §1

VE-821 + Trametinib = compound: CS(=O)(=O)c1ccc(-c2cnc(N)c(C(=O)Nc3ccccc3)n2)cc1 [VE-821] + CC(=O)Nc1cccc(-n2c(=O)n(C3CC3)c(=O)c3c(Nc4ccc(I)cc4F)n(C)c(=O)c(C)c32)c1 [Trametinib] (partner 0.02 µM)
How it was run: as §1

Row | Cell Line | relative viability (VE-821 + Tozasertib; first compound 0.08 µM) | relative viability (VE-821 + Tozasertib; first compound 0.253 µM) | relative viability (VE-821 + Tozasertib; first compound 0.8 µM) | relative viability (VE-821 + Tozasertib; first compound 2.53 µM) | relative viability (VE-821 + Tozasertib; first compound 8 µM) | relative viability (Ruxolitinib + Foretinib; first compound 0.08 µM) | relative viability (Ruxolitinib + Foretinib; first compound 0.8 µM) | relative viability (Ruxolitinib + Foretinib; first compound 2.53 µM) | relative viability (Ruxolitinib + Foretinib; first compound 8 µM) | relative viability (VE-821 + Foretinib; first compound 0.08 µM) | relative viability (VE-821 + Foretinib; first compound 0.253 µM) | relative viability (VE-821 + Foretinib; first compound 0.8 µM) | relative viability (VE-821 + Foretinib; first compound 2.53 µM) | relative viability (VE-821 + Foretinib; first compound 8 µM) | relative viability (VE-821 + Trametinib; first compound 0.08 µM) | relative viability (VE-821 + Trametinib; first compound 0.253 µM) | relative viability (VE-821 + Trametinib; first compound 0.8 µM) | relative viability (VE-821 + Trametinib; first compound 2.53 µM) | relative viability (VE-821 + Trametinib; first compound 8 µM) | relative viability (Ruxolitinib + Foretinib; first compound 0.253 µM)
1 | 201T | 1.04 | 0.988 | 0.896 | 0.929 | 0.636 | 1.11 | 1.43 | 1.1 | 1.26 | 1.09 | 1.17 | 0.784 | 0.968 | 0.6 | 0.743 | 0.721 | 0.725 | 0.734 | 0.693 | 
2 | NCI-H322M | 0.542 | 0.457 | 0.451 | 0.434 | 0.297 | 0.964 | 1.18 | 1.22 | 1.43 | 1.07 | 0.879 | 0.89 | 0.858 | 0.393 | 0.604 | 0.565 | 0.572 | 0.493 | 0.472 | 0.99
3 | LU99A | 0.264 | 0.299 | 0.277 | 0.24 | 0.227 | 0.882 | 0.787 | 0.69 | 0.641 | 0.903 | 0.763 | 0.802 | 0.851 | 0.462 | 0.532 | 0.541 | 0.572 | 0.528 | 0.29 | 0.858
4 | NCI-H2405 | 0.824 | 0.714 | 0.713 | 0.726 | 0.742 |  | 1.17 | 1.08 | 0.875 | 1.09 | 1.06 | 0.993 | 1.09 | 1.12 | 0.643 | 0.628 | 0.53 | 0.699 | 0.546 | 1.06
